One data set relates to Calu-3 cell barrier. Kind of data set: Transport assay, Calu-3 cell barrier. The data set is classed as in vitro ADME. The following applies: for Permeability / transport rate across Calu-3 cell barrier (in words): 4 and 24 h, PatA, DMDA 5, 50, 100 nM, controls 200 µM. Here is the method:
The transport assay was achieved as described previously. Briefly, 1 × 10^5 CaCo-2 or 5 × 10^4 Calu-3 cells in 300 µL medium were seeded on 24-well ThinCerts (pre-coated with FCS for 60 min) and in the lower compartment, 1 mL culture medium per well was added. The Caco-2 cell barrier was generated over 20 days and the Calu-3 barrier was generated over 14 days. DMDA (0 nM, 5 nM, 50 nM, 100 nM), PatA (0 nM, 5 nM, 50 nM, 100 nM), 200 µM famotidine, 200 µM lucifer yellow or 200 µM carbamazepine diluted in medium was added to the apical compartment and incubated for 4 h or 24 h. The medium from the basolateral and apical compartment was collected and stored at −20 °C and analyzed using LC-MS/MS. To obtain the transport rate, the drug amount in the basolateral compartment at 4 h or 24 h was related to the drug amount in the apical compartment (0 h).
The detailed method for the analysis of DMDA, PatA, carbamazepine and famotidine using LC-MS/MS is described in the Supplementary Materials.

A further data set has as its system Human primary T cells. The experiment in a line: T cell activation with anti-CD3/anti-CD28. The following applies: for Number of activated cells (CD3+CD25+CD69+ cells) / Proliferation rate (CTV) / Surface marker expression (CD69, CD154, CD134, CD25, CD18, CD49a, CD54) / Apoptosis (zombie staining) / Cytokine release (IL-17A, IL-10, IFN-γ): activated T cells, 5 days; for Apoptosis (zombie staining): 0.25-0.5 nM; for Cytokine release (IL-17A, IL-10, IFN-γ): CBA; for Effect on the release of inflammatory markers, T Cells: summary table. It counts as cell-based. Here is the method:
T cells were activated as previously described. Briefly, 1.75 × 10^5 T cells (stained with 0.2 µM CellTrace^TM violet (CTV) (ThermoFisher Scientific, Schwerte, Germany)) per well were pretreated with PatA (0.25, 0.5 nM), DMDA (0.25, 0.5 nM) or vehicle (DMSO) for 30 min in RPMI 1640 medium supplemented with 2 mM glutamine, 50 Units/mL IL-2, 1% penicillin/streptomycin and 10% FCS. Afterwards, they were seeded in CD3-coated 96-well plates and stimulated with 2 µg/mL CD28 for 5 days. CTV staining was performed according to the protocol of supplier.
Surface marker analysis was performed as described previously. Briefly, 1.5–2 × 10^5 cells of each sample were blocked with human FcR Blocking Reagent (15 min, 4 °C). A Zombie Aqua™ Fixable Viability Kit (1:500 dilution, BioLegend, San Diego, CA, USA) was used according to the manufactory protocol to discriminate living and dead cells. Afterwards, samples were stained with a mixture of different surface marker antibodies (15 min, 4 °C) and measured with MACSQuant® Analyzer 10 flow cytometer. For M1-/M2-MdMs anti-CD86, anti-CD14, anti-HLA-DR, anti-CD206, anti-CD80, anti-TREM2 and anti-CD163 were used. For T cells, anti-CD69, anti-CD54, anti-CD49a, anti-CD18, anti-CD134, anti-CD154, anti-CD3 and anti-CD25 were analyzed. For B cells, anti-CD27, anti-CD19 and anti-CD38 were applied. For T cell and B cell proliferation assay, freshly isolated T and B cells were stained with CTV and detected using flow cytometry. Naïve B cells were characterized as CD19^+CD27^lowCD38^med, memory B cells as CD19^+CD27^med CD38^low and plasma cells as CD27^+CD38^+ cells. M1 MdMs and M2 MdMs cell population was gated using FSC/SSC channel. T cells were gated as CD3^+CD25^+ positive cells. The geometric mean of the fluorescent intensity was calculated using FlowJo software v10 (Treestar, Ashland, […], USA). Fold induction of surface marker expression was calculated using the DMSO-treated cells as the control.
For determination of cytokine concentrations in the supernatant of humane immune cells, cytometric bead array (BD Biosciences, Heidelberg, Germany) for IL-10, IL-17, IL-8, IL-6, IFN-γ and CCL2 was used. For the detection of CCL18, CCL17, IgG, IgA and PGE2, an ELISA was performed. The cytometric bead arrays and the ELISAs were performed according to the protocol of the supplier.

A further data set has as its system TK6 cells. Kind of data set: Micronuclei assay. It counts as cell-based, human. The following applies: 4 h incubation then 44 h. Here is the method:
The In-Vitro Micronuclei Plus assay (Becton Dickinson, Heidelberg, Germany) was performed as described by the supplier. Briefly, 2 × 10^4 TK6 cells were incubated with increasing concentrations of PatA, DMDA and silvestrol for 4 h. The cells were washed with PBS and incubated in fresh medium (without test substance) for 44 h. The cells were centrifuged (300× g) for 5 min, the […] and placed on ice for 20 min. Then, 50 µL of Complete Nucleic Acid Dye A Solution was added. The plate was placed on ice and exposed to visible light for 30 min. The Nucleic Acid Dye A solution was removed and the cells were washed with 0.15 mL of cold 1x Buffer Solution. An amount of 100 µL Complete Lysis Solution 1 was added, followed by gently mixing of the plate for 5 s and incubation of 1 h in the dark at 37 °C. Then, 100 µL Complete Lysis Solution 2 was added and incubated for 30 min in the dark at room temperature. The cells were analyzed via flow cytometry with the MACSQuant 10 (Miltenyi GmbH, Bergisch Gladbach, Germany).

The subject of data set [1] is Salmonella typhimurium strain TA100. Kind of data set: Ames MPF test, strain TA100. The data set is classed as cell-based. The conditions noted are these: TA100, with and without S9, 10-250 nM. Here is the method:
(§1) The Ames MPF 98/100 test (Xenometrix, Allschwil, Switzerland) was performed as recommended by the supplier and recently published. Briefly, two bacteria strains incapable of producing histidine (Salmonella typhimurium strains TA98 and TA100) were used. Liver homogenate S9 was applied to simulate the metabolic conversions of PatA and DMDA. After exposure to increasing concentrations of PatA (0, 10, 50, 250 nM), DMDA (0, 10, 50, 250 nM) or with positive controls (2 μg/mL for 2-NF (TA98), 2.5 μg/mL for 4-NQO (TA100), 63 μg/mL (TA100 with SF9) and 25 µg/mL (TA98 with SF9) for 2-AA), the cultures were diluted in pH indicator medium lacking histidine and incubated for two days. Cells that had undergone reversion to amino acid prototrophy grew into colonies and bacterial metabolism reduced the pH of the medium, changing the color of that well. Revertant colony numbers of each well were counted and related to the negative control (DMSO). The experiment was conducted once in triplicate. The Ames MPF calculation sheet provided by Xenometrix was used for data analysis. Fold induction over the baseline was calculated as the ratio of the mean number of positive wells to the baseline. The baseline was obtained by adding one standard deviation to the mean number of positive wells of the solvent control. Compounds with mutagenic potential were characterized by revertant numbers above the baseline.
(In the Ames test, an excess of revertant colonies over the control signals mutagenicity.)

In data set [2] the test system is Salmonella typhimurium strain TA98. The experiment in a line: Ames MPF test, strain TA98. The following applies: TA98, with and without S9, 10-250 nM. It counts as cell-based. Here is the method:
as §1

From publication PMC11546719, “Immune Modulatory Profile of the Pateamines PatA and Des-Methyl Des-Amino PatA” (International Journal of Molecular Sciences, 2024) come the findings set out here.

Molecules are shown by their SMILES.

In the case of `CC(/C=C/C(C)=C/[C@@H]1Cc2nc(cs2)CCCCC(=O)O[C@@H](C)C/C(C)=C/C=C\C(=O)O1)=C\CN(C)C` [DMDA, des-methyl des-amino pateamine A], in the data set on Calu-3 cell barrier (100 nM, 24 h), the “Transport rate with Calu-3 cell barrier” value is given as roughly 14%. Further, the “Permeability / transport rate across Calu-3 cell barrier (in words)” value in the data set on Calu-3 cell barrier was “exhibited low permeability”. Further, in the data set with Human primary T cells, the “Number of activated cells (CD3+CD25+CD69+ cells)” value is listed as “did not influence the number of activated cells”; the “Proliferation rate (CTV)” value is given as “Neither had any effects”; the “Surface marker expression (CD69, CD154, CD134, CD25, CD18, CD49a, CD54)” value is “Neither had any effects”; the “Apoptosis (zombie staining)” value is “showed no apoptotic effects”. For the same molecule, in the data set on Human primary T cells, the “Cytokine release (IL-17A, IL-10, IFN-γ)” value is given as “Neither had any effects” and the “Effect on the release of inflammatory markers, T Cells” value is listed as “No effect”. Besides, in the data set on TK6 cells, the “Genotoxic potential: micronuclei (clastogenic) and hypodiploid cells (aneugenic)” value is “induced neither clastogenic nor aneugenic effects”. Further, in data set [1], the “Mutagenic potential (Ames test)” value was “negative in all Ames mutagenic assays”. The “Mutagenic potential (Ames test)” value in data set [2] is “negative in all Ames mutagenic assays”.

As to `CC(/C=C/C(C)=C/[C@@H]1Cc2nc(cs2)[C@@H](C)C[C@@H](N)CC(=O)O[C@@H](C)C/C(C)=C/C=C\C(=O)O1)=C\CN(C)C` [PatA, pateamine A], the “Permeability / transport rate across Calu-3 cell barrier (in words)” value in the data set on Calu-3 cell barrier is “no permeability was detected”. In addition, in the data set on Human primary T cells, the “Number of activated cells (CD3+CD25+CD69+ cells)” value was “did not influence the number of activated cells”; the “Proliferation rate (CTV)” value is recorded as “Neither had any effects”; the “Surface marker expression (CD69, CD154, CD134, CD25, CD18, CD49a, CD54)” value is “Neither had any effects”; the “Apoptosis (zombie staining)” value is “showed no apoptotic effects”. Also, in the data set with Human primary T cells, the “Cytokine release (IL-17A, IL-10, IFN-γ)” value is reported as “Neither had any effects” and the “Effect on the release of inflammatory markers, T Cells” value was “No effect”. The “Genotoxic potential: micronuclei (clastogenic) and hypodiploid cells (aneugenic)” value in the data set on TK6 cells (10 nM) is “induced clastogenic effects”. The “Mutagenic potential (Ames test)” value in data set [1] is reported as “negative in all Ames mutagenic assays”. Besides, in data set [2], the “Mutagenic potential (Ames test)” value is on record as “negative in all Ames mutagenic assays”.
